Source: US8436039B2, “Inhibitors of the ATB(0,+) transporter and uses thereof” (Georgia Health Sciences University Research Institute, Inc., priority 2008, dated 2013)
Where “and” joins values, the source holds several entries; their conditions need not be identical. Equal values may be shown once.

Target: T1, human ATB^0,+ (Homo sapiens, UniProt Q9UN76)
T1 construct: The human ATB^0,+ cDNA was cloned from an MCF7 cell (a human mammary epithelial cancer cell line) cDNA library; expressed in transfected cells; host or cells: Xenopus laevis oocytes injected with 50 ng capped cRNA
T1 sequence (Q9UN76 1-642): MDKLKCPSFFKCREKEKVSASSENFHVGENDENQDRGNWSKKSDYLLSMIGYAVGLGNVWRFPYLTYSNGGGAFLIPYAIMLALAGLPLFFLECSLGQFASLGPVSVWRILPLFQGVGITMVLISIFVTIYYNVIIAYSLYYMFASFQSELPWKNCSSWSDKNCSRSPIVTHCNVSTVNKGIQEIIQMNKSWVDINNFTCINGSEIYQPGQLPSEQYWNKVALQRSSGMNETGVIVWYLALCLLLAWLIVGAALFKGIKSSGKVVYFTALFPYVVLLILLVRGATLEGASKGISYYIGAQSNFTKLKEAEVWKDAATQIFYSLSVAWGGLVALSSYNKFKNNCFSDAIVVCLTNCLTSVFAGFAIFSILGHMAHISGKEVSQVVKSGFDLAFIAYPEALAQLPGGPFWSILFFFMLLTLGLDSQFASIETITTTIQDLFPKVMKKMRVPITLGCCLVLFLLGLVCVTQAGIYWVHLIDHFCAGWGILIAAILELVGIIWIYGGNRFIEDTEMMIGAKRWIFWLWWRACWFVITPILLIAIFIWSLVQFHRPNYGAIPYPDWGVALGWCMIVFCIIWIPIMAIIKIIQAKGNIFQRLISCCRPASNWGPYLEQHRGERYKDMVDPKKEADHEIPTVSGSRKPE
Experiment: Block of inward currents induced by amino acid mixture simulating plasma in X. laevis oocytes expressing human ATB^0,+
Assay type: cell-based
Method: Capped cRNA from the cloned mouse or human ATB^0,+ cDNA was synthesized using the mMESSAGE mMACHTNE kit (Ambion, Austin, Tex., U.S.A.). Mature oocytes (stage IV or V) from X. laevis were injected with 50 ng of cRNA. Uninjected oocytes served as controls. The oocytes were used for electrophysiological studies 3-6 days after cRNA injection. Electrophysiological studies were performed by the two-microelectrode voltage-clamp method (Nakanishi et al., 2001, J. Physiol. 532, 297-304). Oocytes were superfused with an NaCl-containing buffer (100 mM NaCl, 2 mM KCl, 1 mM MgCl2, 1 mM CaCl2, 3 mM Hepes, 3 mM Mes and 3 mM Tris, pH 7.5), followed by the same buffer containing tryptophan derivatives. The membrane potential was clamped at −50 mV. The differences between the steady-state currents measured in the presence and absence of substrates were considered as the substrate-induced currents. In the analysis of the saturation kinetics of substrate-induced currents, the kinetic parameter K0.5 (i.e. substrate concentration necessary for induction of half-maximal current) was calculated by fitting the values of the substrate-induced currents to the Michaelis-Menten equation. The Na^+ and Cl^− activation kinetics of substrate-induced currents were analysed by measuring the substrate-specific currents in the presence of increasing concentrations of Na^+ (concentration of Cl^− kept constant at 100 mM) or in the presence of increasing concentrations of Cl^− (concentration of Na^+ kept constant at 100 mM). In these experiments, the composition of the superfusion buffer was modified to contain 2 mM potassium gluconate, 1 mM MgSO4 and 1 mM calcium gluconate in place of KCl, MgCl2 and CaCl2 respectively. The data from these experiments were analysed by the Hill equation to determine the Hill coefficient (h; number of Na^+ and Cl^− ions involved in the activation process). The kinetic parameters were determined by using the commercially available computer program Sigma Plot, version 6.0 (SPSS, Chicago, Ill., U.S.A.). Uninjected oocytes were used to determine the currents induced by tryptophan derivatives due to entry via transporters that may be constitutively expressed in the oocytes. At a concentration of 2.5 mM, the currents induced by these compounds were in the range of 0-3 nA in uninjected oocytes. These currents were less than 2% of the corresponding currents induced in ATB^0,+ cRNA-injected oocytes. Therefore the endogenous currents associated with the constitutively expressed transporters were not considered in the analysis of kinetic parameters of ATB^0,+ transport activity.
These studies with α-methyl-DL-tryptophan as a blocker of ATB^0,+ were carried out with L-tryptophan at sub-saturating concentrations. […] Therefore, using the Xenopus oocyte heterologous expression system, we monitored the transport activity of human ATB^0,+ in the presence of an amino acid mixture consisting of 18 different amino acids, each at its respective physiological concentration found in plasma (Glew et al., 2004, Clin. Chim. Acta 342, 179-185) (Table 1). Inward currents were detected under these conditions in oocytes expressing human ATB^0,+. […] We then monitored the ability of α-methyl-DL-tryptophan to block the inward currents induced by the same mixture of amino acids in oocytes expressing human ATB^0,+ (FIG. 4B). […]

In the case of `CC(N)(Cc1c[nH]c2ccccc12)C(=O)O` (racemic) [α-methyl-DL-tryptophan], the inhibition at 2500 µM (2.5 mM, 18 amino acids at plasma concentrations, read-out: maximal inhibition of amino acid mixture-induced currents) is reported as about 85% and the IC50 (18 amino acids at normal plasma concentrations, read-out: concentration necessary to elicit 50% of maximal inhibition (IC50) of amino acid mixture-induced currents) is reported as ~250 µM and 255 µM.
